Among the data in patent EP4692081A1, “PREPARATION METHOD FOR NAPHTHOISOXAZOLE COMPOUND” (priority 2023, dated 2024) are DC50 values, retold here.

Format in all cases: cell-based
Test [1] concerns the target T1, IRAK4 (Homo sapiens, UniProt Q9NWZ3).
T1 construct: expressed in transfected cells; host or cells: K562 IRAK4-HiBiT cells
T1 sequence (Q9NWZ3 1-460): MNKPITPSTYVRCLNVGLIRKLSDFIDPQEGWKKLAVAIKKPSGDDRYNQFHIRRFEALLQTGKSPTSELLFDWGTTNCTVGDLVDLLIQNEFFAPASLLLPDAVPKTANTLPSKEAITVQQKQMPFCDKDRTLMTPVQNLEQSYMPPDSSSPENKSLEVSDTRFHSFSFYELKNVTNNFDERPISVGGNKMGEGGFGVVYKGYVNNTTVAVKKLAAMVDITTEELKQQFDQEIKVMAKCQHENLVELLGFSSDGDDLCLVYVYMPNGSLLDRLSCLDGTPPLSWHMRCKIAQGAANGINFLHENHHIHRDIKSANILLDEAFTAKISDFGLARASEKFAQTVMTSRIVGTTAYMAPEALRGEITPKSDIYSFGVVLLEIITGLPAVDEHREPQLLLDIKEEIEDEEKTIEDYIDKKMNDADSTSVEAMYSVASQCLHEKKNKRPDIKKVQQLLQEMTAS
Kind of test: Target protein degradation effect in K562 IRAK4-HiBiT cells (Nano-Glo HiBiT luminescence). Particulars: incubated 16 to 18 hours. On the procedure: Objective: In this experiment, the degradation effect of the test compound on the target protein IRAK4 in K562 IRAK4-HiBiT cells was detected.
Cells: K562 IRAK4-HiBiT cells [formula]
Positive control: 1000 nM; negative control: 0.1% DMSO Table 1. Reagents and consumables
• 1. […] Cell seeding • (1) The cell culture medium was discarded, and the cells were washed once with DPBS, digested with trypsin, and counted to prepare a cell suspension of […]. • (2) 25 µL/well of cell suspension was added to the assay plate containing the test compound using Multidrop Combi at medium speed. • (3) The assay plate containing cells was returned to an incubator with 5% CO2 at 37°C and incubated for 16 to 18 hours.
• (1) 25 µL/well of assay reagent (NanoGlo lysis buffer + substrate + LgBit protein) was added to the assay plate using Multidrop Combi at high speed, and the plate was shaken for 10 minutes. • (2) The plate was centrifuged at 2000 rpm for 1 minute to remove air bubbles. • (3) The plate was read on Envision using US Luminescence detection method.
The degradation rate (DR) of the test compound was calculated using the following formula: DR (%) = (RLU vehicle control - RLU compound) / (RLU vehicle control - RLU positive control) * 100%, where the vehicle control served as the blank control. […]
A general note: HiBiT is a short tag that completes a luciferase, so light tracks the accessible tagged protein.

In test [2] the target is T2, IKZF3 (Homo sapiens, UniProt Q96SW2+Q9UKT9).
T2 construct: expression levels of IKZF1 and IKZF3 proteins in MM.1S cells; host or cells: MM.1S cells
T2 sequence (Q9UKT9 whole entry): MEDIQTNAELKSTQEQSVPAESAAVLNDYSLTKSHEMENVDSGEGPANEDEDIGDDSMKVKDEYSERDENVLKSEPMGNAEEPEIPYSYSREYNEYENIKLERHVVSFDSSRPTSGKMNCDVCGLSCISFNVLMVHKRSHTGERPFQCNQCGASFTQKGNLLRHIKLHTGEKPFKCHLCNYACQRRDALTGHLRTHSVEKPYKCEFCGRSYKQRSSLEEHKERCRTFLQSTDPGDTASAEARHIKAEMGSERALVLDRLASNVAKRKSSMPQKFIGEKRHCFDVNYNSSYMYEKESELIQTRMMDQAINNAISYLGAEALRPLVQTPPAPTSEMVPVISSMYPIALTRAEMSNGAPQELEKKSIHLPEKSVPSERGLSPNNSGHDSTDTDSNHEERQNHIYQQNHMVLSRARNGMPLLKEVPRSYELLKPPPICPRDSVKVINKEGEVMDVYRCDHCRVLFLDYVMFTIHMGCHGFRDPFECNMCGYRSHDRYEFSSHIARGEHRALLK
T2 sequence (Q96SW2 whole entry): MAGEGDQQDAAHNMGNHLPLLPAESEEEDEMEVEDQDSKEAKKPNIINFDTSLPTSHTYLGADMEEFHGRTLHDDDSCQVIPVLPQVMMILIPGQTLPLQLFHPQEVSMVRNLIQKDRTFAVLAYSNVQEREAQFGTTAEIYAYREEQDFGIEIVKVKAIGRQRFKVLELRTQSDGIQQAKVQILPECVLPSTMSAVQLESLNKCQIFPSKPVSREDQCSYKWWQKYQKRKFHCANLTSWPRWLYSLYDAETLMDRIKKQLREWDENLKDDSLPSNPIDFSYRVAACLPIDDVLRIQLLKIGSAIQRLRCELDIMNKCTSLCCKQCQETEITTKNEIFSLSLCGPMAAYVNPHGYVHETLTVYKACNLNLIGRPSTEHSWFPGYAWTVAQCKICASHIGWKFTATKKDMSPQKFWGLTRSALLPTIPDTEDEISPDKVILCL
T2 sequence (Q16531 whole entry partner): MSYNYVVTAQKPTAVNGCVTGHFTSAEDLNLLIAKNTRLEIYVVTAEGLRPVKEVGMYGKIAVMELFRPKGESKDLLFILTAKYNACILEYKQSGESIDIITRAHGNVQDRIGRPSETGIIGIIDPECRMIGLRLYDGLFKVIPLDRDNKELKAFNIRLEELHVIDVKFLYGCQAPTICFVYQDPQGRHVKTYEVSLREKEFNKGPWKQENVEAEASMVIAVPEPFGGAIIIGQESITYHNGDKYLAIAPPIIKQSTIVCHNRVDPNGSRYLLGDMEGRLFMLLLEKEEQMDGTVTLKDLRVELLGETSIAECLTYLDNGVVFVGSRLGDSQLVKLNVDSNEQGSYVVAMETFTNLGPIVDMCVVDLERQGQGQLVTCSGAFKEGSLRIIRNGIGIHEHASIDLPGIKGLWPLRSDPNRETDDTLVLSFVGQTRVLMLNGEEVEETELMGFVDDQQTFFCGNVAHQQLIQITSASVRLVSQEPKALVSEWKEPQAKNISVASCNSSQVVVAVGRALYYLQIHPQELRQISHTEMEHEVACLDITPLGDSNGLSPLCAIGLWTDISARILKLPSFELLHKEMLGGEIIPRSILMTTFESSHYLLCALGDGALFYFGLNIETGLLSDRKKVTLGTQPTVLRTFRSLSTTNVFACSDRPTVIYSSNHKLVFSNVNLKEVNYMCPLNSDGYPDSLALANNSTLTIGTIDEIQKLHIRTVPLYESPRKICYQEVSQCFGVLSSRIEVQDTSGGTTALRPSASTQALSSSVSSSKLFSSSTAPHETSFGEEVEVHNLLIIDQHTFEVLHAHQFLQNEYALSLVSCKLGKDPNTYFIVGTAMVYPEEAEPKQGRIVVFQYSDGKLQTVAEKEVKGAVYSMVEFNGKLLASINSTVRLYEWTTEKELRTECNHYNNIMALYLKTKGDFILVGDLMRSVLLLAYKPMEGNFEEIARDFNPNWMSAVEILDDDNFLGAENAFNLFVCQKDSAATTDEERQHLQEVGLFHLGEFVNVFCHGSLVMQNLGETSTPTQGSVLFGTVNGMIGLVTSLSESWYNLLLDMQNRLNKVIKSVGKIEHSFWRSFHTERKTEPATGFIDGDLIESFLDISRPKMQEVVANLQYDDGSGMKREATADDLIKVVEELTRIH
Kind of test: In cell western analysis of IKZF3 protein expression level in MM.1S cells. Particulars: IKZF3, MM.1S cells, 24 hours. On the procedure: (§1) Objective: The experiment was conducted to evaluate the degradation effects of test compounds on IKZF1 and IKZF3 proteins in MM.1S cells by detecting their impact on the expression levels of IKZF1 and IKZF3 proteins in MM.1S cells.
(§2) Cell line: MM.1S cell (obtained from ATCC; Cat. No. CRL-2974)
(§3) Negative control: 0.1% DMSO Table 4. Reagents and consumables
(§4) Experimental scheme: • 1) MM.1S cells in the logarithmic growth phase were seeded into a 96-well plate at 1.2 × 10^5 cells per well and cultured overnight. • 2) On the second day, drug treatment was initiated with a starting concentration of 300 nM, followed by a 3-fold dilution in triplicate wells, with 10 concentration gradients (containing DMSO), and incubated for 24 hours in a culture incubator. • 3) The mixture was centrifuged, and the cell supernatant was carefully removed. […]
(§5) GraphPad Prism 6 software was utilized to fit the curve with the inhibition rate data, and the DC50 value was calculated.

Test [3] has as its target T3, IKZF1 (Homo sapiens, UniProt Q13422+Q96SW2).
T3 construct: expression levels of IKZF1 and IKZF3 proteins in MM.1S cells; host or cells: MM.1S cells
Kind of test: In cell western analysis of IKZF1 protein expression level in MM.1S cells. Particulars: IKZF 1, MM.1S cells, 24 hours. On the procedure:
as §1, §2, §3, §4, §5

Structures can show the parent of a compound that is named as a salt.

T3 sequence (Q13422 whole entry): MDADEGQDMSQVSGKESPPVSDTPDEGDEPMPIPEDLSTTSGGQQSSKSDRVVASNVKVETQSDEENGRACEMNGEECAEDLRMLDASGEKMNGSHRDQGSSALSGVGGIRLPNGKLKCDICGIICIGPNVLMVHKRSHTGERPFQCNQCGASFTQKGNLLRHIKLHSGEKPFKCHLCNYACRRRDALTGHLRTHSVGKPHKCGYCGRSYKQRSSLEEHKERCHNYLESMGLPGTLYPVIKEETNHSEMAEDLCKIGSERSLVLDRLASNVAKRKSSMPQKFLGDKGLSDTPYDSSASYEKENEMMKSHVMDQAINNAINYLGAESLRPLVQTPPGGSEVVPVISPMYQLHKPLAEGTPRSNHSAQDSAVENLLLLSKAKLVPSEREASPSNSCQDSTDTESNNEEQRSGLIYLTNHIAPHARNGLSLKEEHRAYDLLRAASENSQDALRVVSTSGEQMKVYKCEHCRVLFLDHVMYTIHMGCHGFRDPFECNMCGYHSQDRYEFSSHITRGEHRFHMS
T3 sequence (Q96SW2 whole entry): as the sequence (Q96SW2 whole entry) above
T3 sequence (Q16531 whole entry partner): as the sequence (Q16531 whole entry partner) above

In the case of `O=C1CCC(c2noc3ccc4c(NC(=O)CN5CCN(C[C@H]6CC[C@H](n7cc(NC(=O)c8coc(-c9ccnc(NCC%10CC%10)c9)n8)c(C(F)F)n7)CC6)CC5)cccc4c23)C(=O)N1` (stereo partly drawn) [Hydrochloride of Compound of Formula (I)], the DC50 in test [1] was determined as 4.87 nM; in test [2], 20.6 nM; in test [3], 23.4 nM.
